PMC10536132, “Arginine Gemini-Based Surfactants for Antimicrobial and Antibiofilm Applications: Molecular Interactions, Skin-Related Anti-Enzymatic Activity and Cytotoxicity” (Molecules, 2023)
Marks after values point to notes of the source that are not given here.

Experiments:
[1] = Cell viability, NRU assay; type: cell-based, human; settings: human, HaCaT cells (immortal human keratinocytes); NRU, HaCaT, surfactant in solution at 35.6 µg/mL, 24 h; read-out: cellular viability
Description: (§1) The immortal human keratinocyte (HaCaT) and the squamous cell carcinoma (A431) were obtained from Celltec, University of Barcelona. The cells were grown in DMEM medium (4.5 g/L glucose) supplemented with 10% (v/v) FBS, 2 mM L-glutamine, 100 U/mL of penicillin and 100 μg/mL of streptomycin at 37 °C under 5% CO2. Cells were routinely cultured in 75 cm^2 culture flasks and were trypsinized using trypsin-EDTA when reached approximately 80% of confluence.
(§2) HaCaT cells (1 × 10^5 cells/mL) and A431 cells (5 × 10^4 cells/mL) were grown at the defined densities into the central 60 wells of a 96-well microplate. Cells were incubated for 24 h under 5% CO2 at 37 °C. The medium was then removed and the cells were incubated with the surfactants (100 μL), previously diluted 1:1 (v/v), reaching a concentration of […] in DMEM medium supplemented with 5% FBS using two different colorimetric methods for quantification, as follows.
(§3) The accumulation of the neutral red dye in the lysosomes of viable, undamaged cells constitutes the basis of the neutral red uptake (NRU) assay. After the cells were incubated for 24 h with the corresponding systems at 35.6 µg/mL, the medium was removed and the surfactants´ solutions were incubated for 3 h with the NRU dye solution (50 μg/mL) dissolved in the medium without FBS and phenol red (Lonza). Cells were then washed with sterile PBS, followed by the addition of 100 μL of a solution containing 50% ethanol absolute and 1% acetic acid in distilled water to extract the non-adhered dye. The microplates were then stirred for 5 min at 25 °C to promote the dissolution. Finally, the absorbance of the resulting solutions was measured at λ = 550 nm using a Bio-Rad 550 microplate reader (Hercules, CA, USA).

[2] = tested on: squamous cell carcinoma (A431); assay: Cell viability, NRU assay; type: cell-based; settings: A431, surfactant in solution at 35.6 µg/mL, 24 h
Description: as §1, §2, §3

bovine hyaluronidase = assay: Hyaluronidase inhibitory activity; type: biochemical; settings: negative inhibition values
Description: The hyaluronidase inhibitory activity was performed according to the method used by Altinyay et al. with some modifications. Briefly, a work solution containing bovine hyaluronidase (7900 units/mL) in 0.1 M acetate buffer (pH 3.6) was prepared. Fifty microliters of the work solution were mixed 1:1 with the surfactants’ solution in 5% DMSO. For the negative control, 50 μL of 5% DMSO was used, while EGCG was used as positive control. After 20 min of incubation at 37 °C, 50 μL of calcium chloride (12.5 mM) was added to the mixture and again incubated for 20 min at 37 °C. At that point, 250 μL sodium hyaluronate (1.2 mg/mL) was added and incubated for 40 min at 37 °C. After incubation, the mixture was treated with 50 μL of 0.4 M NaOH and 100 μL of 0.2 M sodium borate and then incubated for 3 min in a boiling water bath. After cooling to room temperature, 1.4 mL of p-dimethylaminobenzaldehyde solution was added to the reaction mixture, being further incubated at 37 °C for 20 min. The resulting colored solution was measured at λ = 585 nm (PerkinElmer-Lambda 35, Brazil). The hyaluronidase inhibitory activity of each sample was calculated according to the following formula:(3) Hyaluronidase inhibitory activity %=A1−A2/A1×100 where A1 and A2 represent the absorbance in the absence and presence of the testing sample, respectively.

[3] = design: method as in doi:10.1021/la981295l; settings: cited from earlier work
[4] = design: method as in doi:10.1021/la981295l; settings: cited from earlier work; remark: listed apart in the source
[5] = design: method as in doi:10.1021/la981295l; settings: cited from earlier work; remark: listed apart in the source
[6] = target: porcine pancreatic elastase (Sus scrofa, UniProt P00772); assay: Elastase inhibitory assay; type: biochemical; settings: 40 µL of 1000 µg/mL stock; EGCG 250 μM
Description: The elastase inhibition was tested according to the method described by […] et al.. First, a stock solution of each surfactant at 1000 μg/mL was prepared in sterile ultrapure water. A stock solution of porcine pancreatic elastase at 3.33 mg/mL in sterile ultrapure water was also prepared. The substrate […] (Ala) 3-p-nitroanilide was dissolved in 0.2 mM Tris-HCl buffer solution (pH 8.0). The samples (40 μL) were then diluted and incubated together with the enzyme for 15 min prior to the substrate addition. Negative control was sterile ultrapure water, while EGCG (250 μM or 0.114 mg/mL) was used as the positive control. The absorbance at λ = 410 nm was measured immediately after the substrate addition and continuously during the next 2 h using an Elx800 Microplate Reader (Biotek®). […] The anti-elastase activity (in %), determined in triplicate, was calculated according to the following equation:(2) Elastase inhibitory activity %=A1-A2/A1×100 where A1 and A2 represent the absorbance in the absence and presence of the testing samples, respectively.

[7] = Apparent pKa by direct titration with NaOH; type: physicochemical; settings: aqueous solution, concentration above the minimum aggregation concentration; pH at semi-equivalence point
Description: In order to determine the ionization state of these gemini surfactants at the pH used to investigate their biological properties, the apparent acid pKa was determined for each of them. The pKap value has been determined by means of a direct titration with NaOH of an aqueous solution of each compound. The surfactant concentrations used were in all cases higher than the minimum aggregation concentration, thus avoiding possible deviations in the pK value due to the monomer–aggregate balance. The pKap values can be estimated from the pH at the semi-equivalence point that is reached when the molar ratio of protonated and non-protonated species is 1:1. In these conditions, we have that the pH = pKa.
The pKa value of each compound has been determined by means of a direct titration with NaOH of an aqueous solution of each compound. The pH was measured using the pH electrode Thermo Electron Corporation ORION 8103SC and the temperature was controlled by a thermostatic bath, Heto CBN 8-30. The pKa values can be estimated from the pH at the semi-equivalence point, which contains a 1:1 molar ratio of protonated and non-protonated species; at this point, pH = pKap.

[8] = tested on: Gram-positive and Gram-negative bacteria; assay: Minimum inhibitory concentration (MIC), broth microdilution; type: cell-based; settings: planktonic bacteria, 24 h at 37 °C, values only in Figure 2
Excerpt: The Gram-positive bacteria tested include some problematic microorganisms such us L. monocytogenes; these bacteria cause listeriosis, a serious disease that has grown considerably in industrialized countries due to the increased ratio of immunosuppressed persons and the extensive use of refrigerated food. We have also tested the effectivity of these surfactants against methicillin-resistant Staphylococcus aureus (MRSA), which is known as a major cause of hospital-acquired infections and, at this time, is a remarkable public health problem. […] For comparison, this figure also includes the MIC values of a LAM (lauroyl arginine methyl ester) surfactant that can be considered the single-stranded homologue of these geminis and the BAC (benzalkonium ammonium chloride), a quaternary ammonium surfactant widely used as antiseptic.
Antimicrobial tests were carried out against the following microorganisms: Bacillus subtilis ATCC 6633, Staphylococcus epidermidis ATCC 12228, Staphylococcus aureus ATCC 29213, Listeria monocytogenes ATCC 15313, Enterococcus faecalis ATCC 29212, Escherichia coli ATCC 25922, Acinetobacter baumannii ATCC 19606, Klebsiella aerogenes ATCC 13048, methicillin-resistant Staphylococcus aureus ATCC 43300 and Pseudomonas aeruginosa PAO1. […] The growth of the microorganisms was determined visually after incubation for 24 h at 37 °C. […]

[9] = tested on: methicillin-resistant Staphylococcus aureus (MRSA) ATCC 43300 biofilm; assay: Biofilm inhibition, crystal violet; type: cell-based; settings: 24 h contact, 2–128 μg/mL tested
Description: (§4) The ability of MRSA and P. aeruginosa to form biofilms on propylene surfaces in the presence of bis-Args was determined. The two bacterial cells were kept in contact with the gemini surfactants at different concentrations from 2 to 128 μg/mL for 24 h. Then, the percentage of biofilm inhibition was determined.
(§5) Antibiofilm activity was assessed against biofilm-producing strains of methicillin-resistant Staphylococcus aureus (MRSA) ATCC 43300 and Pseudomonas aeruginosa PAO1. Biofilm inhibition and eradication capacities of the gemini surfactants were evaluated against adherent bacterial biofilms grown in 96-well microtiter plates. Bacteria were grown overnight in tryptic soy agar at 37 °C for 24 h. The bacteria were suspended in lysogeny broth with glucose (1%) at 1.5 × 10^8 CFU/mL.
(§6) Biofilm inhibition procedure: 100 μL of the gemini surfactant at different concentration values was added to each well in a 96-well microplate, then, 100 μL of the diluted bacterial suspension was added to the wells. Two-fold serial dilutions of the gemini surfactants to be tested were used (2–128 μg/mL). Microtiter plates were incubated at 37 °C for 24 h. Spent growth media was then discarded and biofilm was fixed with 150 μL methanol for 10 min. After the plates were air dried, the biofilms were stained with 50 μL of 0.1 of % crystal violet for 25 min. The plates were rinsed with water and then 150 μL of 96% ethanol containing 10% acetic acid was added to all 96-well plates to dissolve the remaining crystal violet-stained biofilm. The absorbance value was recorded at 570 nm. Each assay was performed at least three times and the results were averaged.

[10] = tested on: Pseudomonas aeruginosa PAO1 biofilm; assay: Biofilm inhibition, crystal violet; type: cell-based; settings: P. aeruginosa PAO1, 24 h contact, 2–128 μg/mL tested
Description: as §4, §5, §6

[11] = tested on: methicillin-resistant Staphylococcus aureus (MRSA) ATCC 43300 biofilm; assay: Biofilm eradication, crystal violet; type: cell-based; settings: at 32 μg/mL
Description: (§7) The ability of these geminis to disperse and eradicate biofilms once formed on the propylene surfaces of the microtiter plates was evaluated using the same bacterial strains. […] The susceptibility of both biofilms against the tested surfactants was similar. At a low concentration of 32 μg/mL, C3(CA)2 and C3(LA)2 were able to eradicate around 60–70% of preformed biofilm; however, at this concentration, the […] hydrophobic compound, C3(OA)2, eradicated less than 30% of biofilm. At high concentrations, the eradication percentage is similar for all alkyl chains. […] In this case, at low concentrations, there is not a clear dependence between the antibiofilm properties and the spacer; however, at a high concentration, the best effectivity was obtained for the longer spacer chains.
as §5
(§8) Biofilm eradication procedure: For mature biofilm formation, 200 μL of the diluted bacterial suspension was added to each well in a 96-well microplate and incubated at 37 °C for 24 h. The wells were gently rinsed with phosphate-buffered saline (PBS) and 200 μL of the corresponding gemini surfactant solution was added to each well and incubated again at 37 °C for 24 h. Two-fold serial dilutions of the gemini surfactant were used (4–128 μg/mL). After the plates were air dried, the biofilms were stained with 50 μL of 0.1 of % crystal violet for 25 min. The plates were rinsed with water and then 150 μL of 96% ethanol containing 10% acetic acid was added to all 96-well plates to dissolve the remaining crystal violet-stained biofilm. The absorbance value was recorded at 570 nm. Each assay was conducted at least three times and the results were averaged.

[12] = tested on: Pseudomonas aeruginosa PAO1 biofilm; assay: Biofilm eradication, crystal violet; type: cell-based; settings: P. aeruginosa PAO1, at 32 μg/mL
Description: as §7, §5, §8

porcine pancreatic elastase, sequence (P00772 27-266): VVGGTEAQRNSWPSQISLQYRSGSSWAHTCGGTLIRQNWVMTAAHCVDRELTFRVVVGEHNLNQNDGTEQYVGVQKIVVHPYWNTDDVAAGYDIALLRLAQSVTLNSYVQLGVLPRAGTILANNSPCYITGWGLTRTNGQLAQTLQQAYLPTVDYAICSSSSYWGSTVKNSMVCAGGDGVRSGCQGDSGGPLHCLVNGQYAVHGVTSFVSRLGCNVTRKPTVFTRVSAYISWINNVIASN

In the case of `CCCCCCCCCCCC(=O)NC(CCCNC(=N)N)C(=O)NCCCCCCNC(=O)C(CCCNC(=N)N)NC(=O)CCCCCCCCCCC` (stereo not drawn) [C6(LA)2], the viability at 24 h, 35.6 µg/mL [1] is reported as 99.3%, the “cytotoxicity, in words” value [2] is reported as “did not cause any apparent cytotoxicity” and the “increase of hyaluronidase enzymatic activity” value (bovine hyaluronidase) is reported as 47.2%. The “CMC (mM) Fluorescence” value [3] was 0.4 * mM, the “CMC (mM) Surface Tension” value [4] was 0.002 * mM and the γcmc ([4]; surface tension at the cmc) was 30 * mN/m. The “CMC (mM) Conductivity” value [5] was 0.4 * mM, the “anti-elastase activity (inhibition)” value [6] was 10.5% and the pKap [7] was 10.5.

For `CCCCCCCCCCCC(=O)NC(CCCNC(=N)N)C(=O)NCC(O)CNC(=O)C(CCCNC(=N)N)NC(=O)CCCCCCCCCCC` (stereo not drawn) [C3(LA)2OH, Bis (N^α-lauroyl arginine) (2-hydroxy-1,3-propane) diamide], the “CMC (mM) Fluorescence” value [3] is given as 0.6 * mM, the “CMC (mM) Conductivity” value [5] is given as 0.6 * mM and the pKap [7] is given as 10.9.

For `CCCCCCCC(=O)NC(CCCNC(=N)N)C(=O)NCCCNC(=O)C(CCCNC(=N)N)NC(=O)CCCCCCC` (stereo not drawn) [C3(OA)2], the “CMC (mM) Fluorescence” value [3] is given as 8 * mM, the “antimicrobial activity (MIC), in words” value [8] is given as “lowest antimicrobial efficiency (highest MIC values)” and the “concentration that inhibits biofilm formation” value [9] is given as 128 µg/mL. For the same molecule, the “concentration that inhibits biofilm formation” value [10] was 128 µg/mL, the preformed biofilm eradicated [11] was “less than 30%” and the preformed biofilm eradicated [12] was “less than 30%”.
